Reference: US20230097883A1, “ERGOTHIONEINE PET COMPOUNDS AND METHODS OF USE THEREOF” (VANDERBILT UNIVERSITY, priority 2021, published 2023)

What was measured:
[1] = Ex-vivo cut-and-count whole-body biodistribution of I.V.-injected [11C]ERGO in WT mice; set-up: species or system mouse; conditions: for brain concentration: after cardiac perfusion
Protocol: At 5 or 10 min post injection, anesthetized mice were laid on the shallow tray filled with crushed ice and the thoracic cavity was accessed using a scalpel after making […] mid-line incision from the abdominal area. After careful separation of the liver from the diaphragm, the thoracic opening was stabilized with a retractor. Perfusion was performed as we described in the past. Following removal of air bubbles, approximately 30 mL (pH7.4) of ice-cold PBS buffer is slowly injected in the left ventricle toward the ascending aorta using a 25-G syringe while the right atrium was snipped off using a curved point squeeze snip scissors to facilitate drainage of the systemic venous return. Then, 30 mL of 4% paraformaldehyde (PFA, pH 7.4) was perfused. When completed, tissues were harvested and weighed before counting using the automatic gamma counter (Hidex).
Cohorts of WT mice were injected with [^11C]ERGO probe, followed by cardiac perfusion 5 (n=5), 10 (n=5) and 30 (n=6) minutes after injection before tissues were collected for activity counting.

[2] = Ferrous ion chelating (FIC) assay; assay type: biochemical; conditions: increasing ERGO concentrations
Description: We also assessed ERGO's transition metal scavenging using cupric ion chelating (CIC) and ferrous ion chelating (FIC) assays. In these experiments, pyrocatechol violet or ferrozine forms a complex with free Cu(II) or Fe(II), respectively, resulting in a chromophore with a strong absorbance signal. The pyrocatechol violet-COI) complex has an absorbance lambda max (λmax) at 630 nm, and ferrozine-Fe(II) has a λmax at 562 nm. In the presence of ERGO, fewer free metals are available to form these complexes, resulting in less absorbance.
The iron chelating activity of ERGO was determined using a FIC assay, which was obtained from Zen-Bio Inc. (Durham, N.C.). The assay was done on a 96-well plate with triplicated samples, standards, background, and max absorbance wells. All of the assay absorbance values were subtracted from the average background absorbance, comprising of water and assay buffer (1:1). Maximal absorbance was measured by averaging the absorbance values of 3 wells containing only FeSO4 and assay buffer. […] The assaying plate was incubated at room temperature for 10 minutes then the plate was read at 562 nm using a Biotek Synergy 4 plate reader. Absorbances were averaged, and the background absorbance was subtracted from the sample and maximum averages (Abstest and Absmax). […]

Abeta = experiment: [11C]PIB PET imaging of Abeta levels after ERGO treatment; assay type: in vivo, mouse
Protocol: To address our primary question whether longitudinal consumption of ERGO as a potent antioxidant benefit the brain, three cohorts of animals (n=12 non-treated WT control, n=12 non-treated 5XFAD, and n=18 ERGO-treated 5XFAD) were used (FIG. 3.2A). Starting at the age of 8 weeks, the animals were treated with high doses of ERGO solution (25-50 mg/Kg) formulated in double distilled (dd) water via oral gavage three times a week over the course of eight weeks. To reduce bias in the behavioral experiments with regard to the potential stress during gavage treatment, non-treated animals underwent the identical gavage process with the vehicle, water, only. The efficacy of the therapy was evaluated by behavioral testing, followed by three different non-invasive PET imaging sessions to assess biomarkers related to AD pathology. […]
Non-invasive, in vivo, and robust assessment of Abeta levels in the brains of treated and non-treated 5XFAD mice were performed using the [^11C]PIB PET probe, the chemical structure of which has been described elsewhere. […] We co-registered the PET/CT image to an MRI template for quantitative PET analysis of regional uptake in the brain. […]

IBA1-positive microglia = experiment: IBA1 immunohistochemistry of brain sections after ERGO treatment; assay type: in vivo, mouse; conditions: ERGO-treated versus non-treated 5XFAD mice
Protocol: In this study, after the PET imaging, animals (non-treated 5XFAD (n=3) and ERGO-treated 5XFAD mice (n=5)) were perfused, and the brain sections were stained with antibodies against GFAP and IBA1 for neuroinflammatory markers astrocytes and microglia, respectively.
Quantitative analysis of the PET imaging and IHC data was performed using imageJ software. The data was imported to GraphPad Prism version 9 for Mac (GraphPad Software, San Diego, Calif., USA) for statistical analysis. Differences between groups were tested using unpaired t-test.

[3] = about 30 minutes after injection
[4] = initial value (5 minutes post I.V. injection)

| SMILES | blood concentration [1, 3] [% ID/g] | eyes concentration [1, 3] [% ID/g] | heart concentration [1, 3] [% ID/g] | kidneys concentration [1, 3] [% ID/g] | liver concentration [1, 3] [% ID/g] | small intestine concentration [1, 3] [% ID/g] | spleen concentration [1, 3] [% ID/g] | brain concentration [1, 3] [% ID/g] | blood concentration [1, 4] [% ID/g] | eyes concentration [1, 4] [% ID/g] | heart concentration [1, 4] [% ID/g] | kidneys concentration [1, 4] [% ID/g] | liver concentration [1, 4] [% ID/g] | small intestine concentration [1, 4] [% ID/g] | spleen concentration [1, 4] [% ID/g] | brain concentration [1, 4] [% ID/g] | absorbance signal of ferrozine-Fe(II) complex [2] | [11C]PIB PET signal in brain (Abeta; ERGO-treated 5XFAD, 4-month-old, n=7, ~15 MBq [11C]PIB) | [11C]PIB % ID/g higher in non-treated 5XFAD compared to treated counterparts, every brain subregion (Abeta; non-treated n=5 versus ERGO-treated n=7 5XFAD mice) | reduction of IBA1-positive microglia (IBA1-positive microglia) [%] |
| --- | --- | --- | --- | --- | --- | --- | --- | --- | --- | --- | --- | --- | --- | --- | --- | --- | --- | --- | --- | --- |
| C[N+](C)([11CH3])[C@@H](Cc1c[nH]c(=S)[nH]1)C(=O)[O-] [[^11C]ERGO] | 0.33 | 0.52 | 0.51 | 4.2 | 2.86 | 0.64 | 0.97 | 0.35 | 0.39 | 0.11 | 0.13 | 1.33 | 0.61 | 0.2 | 0.2 | 0.13 |  |  |  |  |
| C[N+](C)(C)[C@@H](Cc1c[nH]c(=S)[nH]1)C(=O)[O-] [ERGO, L-ergothioneine] |  |  |  |  |  |  |  |  |  |  |  |  |  |  |  |  | decreased as the concentrations of ERGO increased in a dose-dependent fashion | very weak, and resembled the background signal found in WT mice | 30-50% | ~80 |
